In patent publication US11998010B2, “Pesticidal mixtures” (BASF SE, priority 2018, dated 2024) one finds Observed efficacy data, which are given here for two compounds.

This assay has as its system Alternaria solani. The assay can be described thus: Microtest: activity against early blight caused by Alternaria solani (micro titer plate, absorption at 405 nm). In kind it is cell-based. The following applies: single compound, 7 days after inoculation, 0 = growth as untreated control, 100 = no growth. As to the method:
The stock solutions were mixed according to the ratio, pipetted onto a micro titer plate (MTP) and diluted with water to the stated concentrations. A spore suspension of Alternaria solani in an aqueous biomalt or yeast-bactopeptone-glycerine or DOB solution was then added. The plates were placed in a water vapor-saturated chamber at a temperature of 18° C. Using an ab-sorption photometer, the MTPs were measured at 405 nm 7 days after the inoculation. The measured parameters were compared to the growth of the active compound-free control variant (100%) and the fungus-free and active compound-free blank value to determine the relative growth in % of the pathogens in the respective active compounds. These percentages were converted into efficacies. […] The expected efficacies of active compound mixtures were determined using Colby's formula [R. S. Colby, “Calculating synergistic and antagonistic responses of herbicide combinations”, Weeds 15, 20-22 (1967)] and compared with the observed efficacies.

The structures appear in SMILES notation.

With `N#Cc1ccc(Oc2ccc(C(F)(F)C(O)(Cn3ncnc3S)c3ccc(F)cc3F)nc2)cc1` (stereo not shown) [Compound I, 4-[[6-[2-(2,4-difluorophenyl)-1,1-difluoro-2-hydroxy-3-(5-sulfanyl-1,2,4-triazol-1-yl)propyl]-3-pyridyl]oxy]benzonitrile], the Observed efficacy runs as follows: (0.25 ppm) 7; (1 ppm) 8; (4 ppm) 30.

Regarding `Cc1cccc(-n2nnn(C)c2=O)c1COc1ccn(-c2ccc(Cl)cc2)n1` [Compound II, 1-[2-[[1-(4-chlorophenyl)pyrazol-3-yl]oxymethyl]-3-methyl-phenyl]-4-methyl-tetrazol-5-one, reference compound], the Observed efficacy (0.016 ppm) is 11.
